Reference: the supplement of paper PMC11061612

Legend:
Test in all cases: Bliss excess, mean over the matrix (fraction); higher = more synergy
[1] = test system: NCI-H2023 (Non-Small Cell Lung Carcinoma)
Procedure, shortened: (§1)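 Cell lines in DMEM/F12 or RPMI with 10% FBS were plated in 1536-well plates, held 24 hours at 37°C, 5% CO2, then given two-drug dose matrices for 72 hours (DMSO typically 0.2%). Viability was read by CellTiter-Glo 2.0 luminescence and scaled as inhibition from 0 (vehicle wells) to 1 (blank wells). Combination Emax is the second-highest inhibition in the matrix; Bliss excess is observed combination effect minus expected EA + EB − EA·EB, EA and EB being single-agent effects.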

[2] = test system: KNS-62 (Squamous Cell Lung Carcinoma)
Procedure, shortened: as §1

[3] = test system: NCI-H2009 (Lung Adenocarcinoma)
Procedure, shortened: as §1

[4] = test system: GRANTA-519 (B-Cell Non-Hodgkin's Lymphoma)
Procedure, shortened: as §1

[5] = test system: COR-L105 (Lung Adenocarcinoma)
Procedure, shortened: as §1

[6] = test system: NCI-H835 (Other Solid Carcinomas)
Procedure, shortened: as §1

[7] = test system: MRK-nu-1 (Breast Carcinoma)
Procedure, shortened: as §1

[8] = test system: L-363 (Plasma Cell Myeloma)
Procedure, shortened: as §1

[9] = test system: SW1463 (Colorectal Carcinoma)
Procedure, shortened: as §1

[10] = test system: BC-1 (B-Cell Non-Hodgkin's Lymphoma)
Procedure, shortened: as §1

[11] = test system: SNU-1 (Gastric Carcinoma)
Procedure, shortened: as §1

[12] = test system: RPMI-8402 (T-Lymphoblastic Leukemia)
Procedure, shortened: as §1

A375 (Melanoma) = test system: A375 (Melanoma)
Procedure, shortened: as §1

[13] = test system: Daudi (Burkitt's Lymphoma)
Procedure, shortened: as §1

GCIY (Gastric Carcinoma) = test system: GCIY (Gastric Carcinoma)
Procedure, shortened: as §1

[14] = test system: NCI-H1435 (Non-Small Cell Lung Carcinoma)
Procedure, shortened: as §1

[15] = test system: C2BBe1 (Colorectal Carcinoma)
Procedure, shortened: as §1

[16] = test system: HT-3 (Cervical Carcinoma)
Procedure, shortened: as §1

HT-144 (Melanoma) = test system: HT-144 (Melanoma)
Procedure, shortened: as §1

[17] = test system: NCI-H1944 (Lung Adenocarcinoma)
Procedure, shortened: as §1

## COc1cccc(OCCCN)c1-c1cc(Nc2cnc(C#N)cn2)n[nH]1 [Prexasertib] + CCc1c2c(nc3ccc(O)cc13)-c1cc3c(c(=O)n1C2)COC(=O)[C@]3(O)CC [SN-38] (first compound max 1 µM, 7x7, partner max 0.3 µM)
[1]
  Bliss excess: -0.0527
[2]
  Bliss excess: -0.0385
[3]
  Bliss excess: 0.132
[4]
  Bliss excess: 0.0025
[5]
  Bliss excess: -0.0404
[6]
  Bliss excess: -0.0014
[7]
  Bliss excess: -0.0613
[8]
  Bliss excess: 0.0377
[9]
  Bliss excess: 0.0515
[10]
  Bliss excess: -0.0226
[11]
  Bliss excess: -0.0357
[12]
  Bliss excess: -0.0152
A375 (Melanoma)
  Bliss excess: -0.0224
[13]
  Bliss excess: -0.0078
GCIY (Gastric Carcinoma)
  Bliss excess: -0.0379
[14]
  Bliss excess: 0.0171
[15]
  Bliss excess: -0.0103
[16]
  Bliss excess: 0.0221
HT-144 (Melanoma)
  Bliss excess: -0.0236
[17]
  Bliss excess: -0.006

## COc1cccc(OCCCN)c1-c1cc(Nc2cnc(C#N)cn2)n[nH]1 [Prexasertib] + CN(C)CCCOc1ccc(-c2ccc3ncc4c(c3c2)n(C2CCOCC2)c(=O)n4C)cn1 [AZD0156] (first compound max 1 µM, 7x7, partner max 1 µM)
[1]
  Bliss excess: -0.0373
[2]
  Bliss excess: 0.0357
[3]
  Bliss excess: 0.019
[4]
  Bliss excess: -0.035
[5]
  Bliss excess: -0.0428
[6]
  Bliss excess: 0.0571
[7]
  Bliss excess: 0.0456
[8]
  Bliss excess: -0.039
[9]
  Bliss excess: -0.0265
[10]
  Bliss excess: -0.0057
[11]
  Bliss excess: -0.0201
[12]
  Bliss excess: -0.0172
A375 (Melanoma)
  Bliss excess: 0.0098
[13]
  Bliss excess: -0.0041
GCIY (Gastric Carcinoma)
  Bliss excess: -0.0072
[14]
  Bliss excess: 0.0385
[15]
  Bliss excess: 0.0131
[16]
  Bliss excess: 0.0366
HT-144 (Melanoma)
  Bliss excess: -0.0135
[17]
  Bliss excess: 0.0331

## COc1cccc(OCCCN)c1-c1cc(Nc2cnc(C#N)cn2)n[nH]1 [Prexasertib] + C[C@@H]1COCCN1C2=NC(=NC(=C2)C3(CC3)[S@](=N)(=O)C)C4=C5C=CNC5=NC=C4 [AZD6738] (first compound max 1 µM, 7x7, partner max 10 µM)
[1]
  Bliss excess: 0.0108
[2]
  Bliss excess: 0.0035
[3]
  Bliss excess: 0.0846
[4]
  Bliss excess: -0.062
[5]
  Bliss excess: -0.0425
[6]
  Bliss excess: 0.0548
[7]
  Bliss excess: -0.0703
[8]
  Bliss excess: -0.0104
[9]
  Bliss excess: 0.0004
[10]
  Bliss excess: -0.0022
[11]
  Bliss excess: -0.0712
[12]
  Bliss excess: 0.001
A375 (Melanoma)
  Bliss excess: 0.0067
[13]
  Bliss excess: -0.0295
GCIY (Gastric Carcinoma)
  Bliss excess: 0.0063
[14]
  Bliss excess: 0.0676
[15]
  Bliss excess: 0.0009
[16]
  Bliss excess: 0.0202
HT-144 (Melanoma)
  Bliss excess: -0.0217
[17]
  Bliss excess: 0.0168

## COc1cccc(OCCCN)c1-c1cc(Nc2cnc(C#N)cn2)n[nH]1 [Prexasertib] + Cc1cc2ncnn2cc1Nc1ncc2c(n1)n(C1CCOCC1)c(=O)n2C [AZD7648] (first compound max 1 µM, 7x7, partner max 10 µM)
[1]
  Bliss excess: -0.027
[2]
  Bliss excess: -0.0225
[3]
  Bliss excess: -0.027
[4]
  Bliss excess: -0.0489
[5]
  Bliss excess: -0.0549
[6]
  Bliss excess: -0.0346
[7]
  Bliss excess: -0.0258
[8]
  Bliss excess: -0.0437
[9]
  Bliss excess: -0.0161
[10]
  Bliss excess: -0.0239
[11]
  Bliss excess: -0.0198
[12]
  Bliss excess: -0.0127
A375 (Melanoma)
  Bliss excess: 0.0029
[13]
  Bliss excess: 0.0017
GCIY (Gastric Carcinoma)
  Bliss excess: -0.0648
[14]
  Bliss excess: 0.0115
[15]
  Bliss excess: 0.0318
[16]
  Bliss excess: -0.0098
HT-144 (Melanoma)
  Bliss excess: -0.0061
[17]
  Bliss excess: -0.0028

## COc1cccc(OCCCN)c1-c1cc(Nc2cnc(C#N)cn2)n[nH]1 [Prexasertib] + O=C(c1cc(Cc2n[nH]c(=O)c3ccccc23)ccc1F)N1CCN(C(=O)C2CC2)CC1 [Olaparib] (first compound max 1 µM, 7x7, partner max 10 µM)
[1]
  Bliss excess: -0.0213
[2]
  Bliss excess: -0.0637
[3]
  Bliss excess: -0.0185
[4]
  Bliss excess: -0.105
[5]
  Bliss excess: -0.0135
[6]
  Bliss excess: -0.045
[7]
  Bliss excess: -0.0392
[8]
  Bliss excess: -0.0157
[9]
  Bliss excess: -0.0549
[10]
  Bliss excess: -0.0108
[11]
  Bliss excess: -0.0533
[12]
  Bliss excess: -0.0292
A375 (Melanoma)
  Bliss excess: -0.0101
[13]
  Bliss excess: -0.058
GCIY (Gastric Carcinoma)
  Bliss excess: -0.0476
[14]
  Bliss excess: 0.0045
[15]
  Bliss excess: -0.0704
[16]
  Bliss excess: 0.0276
HT-144 (Melanoma)
  Bliss excess: -0.0264
[17]
  Bliss excess: -0.0498

## CCc1c2c(nc3ccc(O)cc13)-c1cc3c(c(=O)n1C2)COC(=O)[C@]3(O)CC [SN-38] + CN(C)CCCOc1ccc(-c2ccc3ncc4c(c3c2)n(C2CCOCC2)c(=O)n4C)cn1 [AZD0156] (first compound max 0.3 µM, 7x7, partner max 1 µM)
[1]
  Bliss excess: -0.0017
[2]
  Bliss excess: -0.0557
[3]
  Bliss excess: 0.126
[4]
  Bliss excess: -0.0359
[5]
  Bliss excess: -0.0799
[6]
  Bliss excess: -0.0382
[7]
  Bliss excess: -0.0534
[8]
  Bliss excess: 0.0206
[9]
  Bliss excess: 0.0296
[10]
  Bliss excess: 0.0158
[11]
  Bliss excess: 0.0303
[12]
  Bliss excess: 0.073
A375 (Melanoma)
  Bliss excess: 0.0168
[13]
  Bliss excess: 0.0078
GCIY (Gastric Carcinoma)
  Bliss excess: 0.0057
[14]
  Bliss excess: -0.026
[15]
  Bliss excess: -0.0179
[16]
  Bliss excess: 0.0499
HT-144 (Melanoma)
  Bliss excess: -0.0219
[17]
  Bliss excess: -0.0343

## Cn1cnc2c(F)c(Nc3ccc(Br)cc3Cl)c(C(=O)NOCCO)cc21 [Selumetinib] + C=CCn1c(=O)c2cnc(Nc3ccc(N4CCN(C)CC4)cc3)nc2n1-c1cccc(C(C)(C)O)n1 [AZD1775] (first compound max 10 µM, partner max 1 µM)
[1]
  Bliss excess: -0.0578
[2]
  Bliss excess: -0.0251
[3]
  Bliss excess: 0.0308
[4]
  Bliss excess: 0.03
[5]
  Bliss excess: 0.0203
[6]
  Bliss excess: -0.0223
[7]
  Bliss excess: -0.0289
[8]
  Bliss excess: -0.0042
[9]
  Bliss excess: -0.0367
[10]
  Bliss excess: 0.0569
[11]
  Bliss excess: -0.005
[12]
  Bliss excess: -0.0344
A375 (Melanoma)
  Bliss excess: -0.0187
[13]
  Bliss excess: -0.0995
GCIY (Gastric Carcinoma)
  Bliss excess: 0.0057
[14]
  Bliss excess: 0.0007
[15]
  Bliss excess: -0.0398
[16]
  Bliss excess: -0.0009
HT-144 (Melanoma)
  Bliss excess: -0.0127
[17]
  Bliss excess: -0.0481

## Cn1cnc2c(F)c(Nc3ccc(Br)cc3Cl)c(C(=O)NOCCO)cc21 [Selumetinib] + CC(C)n1c(=O)n(C)c2cnc3cc(F)c(-c4ccc(OCCCN5CCCCC5)nc4)cc3c21 [AZD1390] (first compound max 10 µM, 7x7, partner max 0.3 µM)
[1]
  Bliss excess: -0.0292
[2]
  Bliss excess: -0.0513
[3]
  Bliss excess: -0.0254
[4]
  Bliss excess: -0.0254
[5]
  Bliss excess: 0.0019
[6]
  Bliss excess: -0.0464
[7]
  Bliss excess: 0.0225
[8]
  Bliss excess: -0.0252
[9]
  Bliss excess: -0.0078
[10]
  Bliss excess: -0.0023
[11]
  Bliss excess: 0.025
[12]
  Bliss excess: -0.039
A375 (Melanoma)
  Bliss excess: -0.0271
[13]
  Bliss excess: -0.02
GCIY (Gastric Carcinoma)
  Bliss excess: -0.0233
[14]
  Bliss excess: -0.0087
[15]
  Bliss excess: -0.05
[16]
  Bliss excess: -0.0392
HT-144 (Melanoma)
  Bliss excess: -0.0653
[17]
  Bliss excess: -0.0306

## Cn1cnc2c(F)c(Nc3ccc(Br)cc3Cl)c(C(=O)NOCCO)cc21 [Selumetinib] + CCN(CCO)CCCOc1ccc2c(Nc3cc(CC(=O)Nc4cccc(F)c4)[nH]n3)ncnc2c1 [AZD2811] (first compound max 10 µM, 7x7, partner max 1 µM)
[1]
  Bliss excess: -0.0294
[2]
  Bliss excess: -0.0104
[3]
  Bliss excess: -0.0059
[4]
  Bliss excess: 0.0288
[5]
  Bliss excess: 0.0147
[6]
  Bliss excess: -0.0289
[7]
  Bliss excess: 0.045
[8]
  Bliss excess: -0.0194
[9]
  Bliss excess: 0.0162
[10]
  Bliss excess: 0.0349
[11]
  Bliss excess: 0.0767
[12]
  Bliss excess: 0.0136
A375 (Melanoma)
  Bliss excess: -0.0274
[13]
  Bliss excess: 0.0504
GCIY (Gastric Carcinoma)
  Bliss excess: -0.0127
[14]
  Bliss excess: -0.0112
[15]
  Bliss excess: -0.0439
[16]
  Bliss excess: -0.0288
HT-144 (Melanoma)
  Bliss excess: 0.0172
[17]
  Bliss excess: 0.068

## Cn1cnc2c(F)c(Nc3ccc(Br)cc3Cl)c(C(=O)NOCCO)cc21 [Selumetinib] + C[C@@H]1COCCN1C2=NC(=NC(=C2)C3(CC3)[S@](=N)(=O)C)C4=C5C=CNC5=NC=C4 [AZD6738] (first compound max 10 µM, 7x7, partner max 10 µM)
[1]
  Bliss excess: -0.0255
[2]
  Bliss excess: -0.0278
[3]
  Bliss excess: -0.0313
[4]
  Bliss excess: 0.0067
[5]
  Bliss excess: 0.0306
[6]
  Bliss excess: -0.0375
[7]
  Bliss excess: -0.0317
[8]
  Bliss excess: -0.0207
[9]
  Bliss excess: -0.0121
[10]
  Bliss excess: -0.0612
[11]
  Bliss excess: 0.0537
[12]
  Bliss excess: -0.0196
A375 (Melanoma)
  Bliss excess: 0.0189
[13]
  Bliss excess: 0.0042
GCIY (Gastric Carcinoma)
  Bliss excess: -0.0003
[14]
  Bliss excess: -0.0103
[15]
  Bliss excess: -0.052
[16]
  Bliss excess: 0.063
HT-144 (Melanoma)
  Bliss excess: -0.0011
[17]
  Bliss excess: 0.01
